Measured values reported in ChEMBL document CHEMBL1149030, “Discobahamins A and B, new peptides from the Bahamian deep water marine sponge Discodermia sp” (1994).
In brackets after ≈: the same amount, converted by molar mass.

Key:
Candida albicans [1] = experiment: Antifungal activity against mycelial form of Candida albicans; type: functional
Candida albicans [2] = experiment: Antifungal activity against yeast form of Candida albicans; type: functional

SMILES | MIC (Candida albicans [1]) [µg/mL] | MIC (Candida albicans [2]) [µg/mL]
CCC[C@@H](NC(=O)C(O)C(C)CC)C(=O)N[C@H]1CCCNC(=O)[C@H](Cc2c[nH]c3ccc(O)cc23)NC(=O)/C=C/c2coc(n2)[C@H](C)NC(=O)C(=O)[C@H](CC(C)C)NC(=O)[C@@H]2CCCN2C1=O (some centres undefined) [DISCOBAHAMIN A] | 50 (≈ 53.6 µM) | 25 (≈ 26.8 µM)
CCC(C)C(O)C(=O)N[C@H](CC(C)C)C(=O)N[C@H]1CCCNC(=O)[C@H](Cc2c[nH]c3ccc(O)cc23)NC(=O)/C=C/c2coc(n2)[C@H](C)NC(=O)C(=O)[C@H](CC(C)C)NC(=O)[C@@H]2CCCN2C1=O (some centres undefined) [DISCOBAHAMIN B] | 50 (≈ 52.8 µM) | 25 (≈ 26.4 µM)
